Residues, ends and D or L forms follow the SMILES beside them.
What was measured:
Plasma = test: Induction of clotting in chicken plasma assessed as thrombin clotting time at 1.5 mM; format: functional, Gallus gallus
Blood = test: Induction of blood clotting in chicken serum free blood corpuscles assessed as blood clotting time at 1.5 mM by hayem-method; format: functional, Gallus gallus
[1] = Induction of platelet aggregation in iv dosed Sprague-Dawley rat model of liver injury assessed as reduction in blood loss measured after 30 mins; format: functional; design: scale not given: the % may be the effect or the level left; conditions: 0.5 h

SMILES	Time (Plasma) [s]	Time (Blood) [s]	Activity [1] [%]
CC(C)C[C@H](NC(=O)[C@H](Cc1cnc[nH]1)NC(=O)[C@H](Cc1cnc[nH]1)NC(=O)[C@H](CCC(N)=O)NC(=O)[C@@H](N)CCC(N)=O)C(=O)NCC(=O)NCC(=O)N[C@@H](C)C(=O)N[C@@H](CCCCN)C(=O)N[C@@H](CCC(N)=O)C(=O)N[C@@H](C)C(=O)NCC(=O)N[C@@H](CC(=O)O)C(=O)N[C@H](C(=O)O)C(C)C (H-QQHHLGGAKQAGDV-OH)	35	51	–
CC(C)C[C@H](NC(=O)[C@@H](NC(=O)[C@@H](N)CCCNC(=N)N)[C@@H](C)O)C(=O)N[C@@H](C)C(=O)N[C@@H](Cc1ccccc1)C(=O)N[C@H](C(=O)N[C@@H](CCCNC(=N)N)C(=O)N1CCC[C@H]1C(=O)N[C@@H](CCCCN)C(=O)O)C(C)C (H-RTLAFVRPK-OH)	–	–	60
